The text below walks through data of patent US20210388320A1, “DIFFERENTIATION-INDUCED CELL POPULATION FROM WHICH […] CELLS HAVE BEEN REMOVED, USE OF SAME, AND METHOD FOR PRODUCING SAME” (priority 2014, published 2021).

The subject of data set [1] is human iPS cell strain 253G1. The data set is described as follows: Microscope observation and crystal violet staining after JQ1 addition (Example 5). In kind it is cell-based. The following applies: 0.2 μM or more of JQ1, 96 hours later. As for the experimental part:
(§1) Human iPS cell strain 253G1 was seeded in a 12-well plate (cell density: 20% confluency). Human fibroblasts (NHDF) were seeded in a 12-well plate (cell density: 50% confluency).
(§2) Thereafter, microscope observation was performed 96 hours later, and crystal violet staining was carried out to visualize the cells (FIG. 9).

The subject of data set [2] is normal human dermal fibroblasts (NHDF). The description is as above. The following applies: JQ1 up to 10 μM, 96 hours. The format is cell-based. The method, then:
as §1, §2

Data set [3] deals with human iPS cell strain 253G1. The data set is described as follows: Cell proliferation assay (CCK-8 assay) with JQ1 (Example 6). In kind it is cell-based. The following applies: 0.2 μM or more of JQ1, 96 hours later. The method, then: Human iPS cell strain 253G1 was seeded in a 12-well plate (cell density: 20% confluency).
Thereafter, cell proliferation assay was performed 96 hours after addition (FIG. 10).

Data set [4] relates to TRA-1-60 positive cells in iPS-CM derived from human iPS cell strain MYH-GIP4. Description: TRA-1-60 positive rate in iPS-CM treated with JQ1 (Example 7). The format is cell-based. The method, then:
After differentiation of undifferentiated pluripotent stem cells is induced, a cell dissociation reagent, such as Accutase, is applied to about 1×10^5 to 5×10^5 differentiated cells at 37° C. for 5 minutes, and differentiated cells are dissociated and collected by centrifugation. The differentiated cells are suspended in […] of PBS, and an anti-human TRA-1-60 antibody and an isotype control antibody, both of which are fluorescently labeled, are each added. Then, the resultants are each reacted at 4° C. for 20 minutes in a dark place. After the differentiated cells are washed with PBS and collected by centrifugation, they are each suspended in […] of PBS, passed through a cell strainer, and then collected in FACS tubes. In flow cytometry, fluorescent emission is detected by a detector corresponding to labeled fluorescence, and quantified. Fractions stained with the isotype control antibody are defined as negative fractions, whereas fractions with a higher fluorescence intensity are defined as positive fractions. Among fractions stained with the anti-human TRA-1-60 antibody, the ratio belonging to the positive fractions is expressed as a percentage.
iPS-CM derived from human iPS cell strain MYH-GIP4 was seeded in a 12-well plate (cell density: 90% confluency). […] Thereafter, the TRA-1-60 positive rate was quantified 96 hours after addition. […]

In data set [5] the test system is Human iPS cell strain MYH-GIP4. Description: Microscope observation of cell death after BV addition (Example 1). The format is cell-based. As to conditions: 5 μg/ml BV, 48 to 72 hours later. As for the experimental part: Human iPS cell strain MYH-GIP4 was seeded in a 12-well plate (cell density: 20% confluency). Forty-eight hours after seeding, 0, 0.05, and 5 μg/ml of an anti-CD30 antibody-binding agent (general name: Brentuximab vedotin, abbreviated as “BV”) (trade name: Adcetris (registered trademark)) was added to each well (the agent-containing medium was exchanged every 24 hours). Thereafter, microscope observation was performed every 24 hours. Since Adcetris (registered trademark) contains additives, in addition to BV, numerical values converted from the net weight of BV were described (i.e., “0, 0.05, and 5 μg/ml as BY”).

The test system of data set [6] is normal human dermal fibroblasts (NHDF). The data set is described as follows: Microscope observation of cell death after BV addition, normal fibroblasts (Example 1). The format is cell-based. As to conditions: 5 μg/ml BV, 72 hours after addition. As for the experimental part: Similarly, in order to examine the influence of BV on normal human dermal fibroblasts (NHDF), the same experiment as in Example 1 was conducted.
Human fibroblasts (NHDF) were seeded in a 12-well plate (cell density: 50% confluency). Forty-eight hours after seeding, 0, 0.05, and 5 μg/ml of BV was added to each well (the agent-containing medium was exchanged every 24 hours). Thereafter, microscope observation was performed every 24 hours.

For data set [7], the system named is NHDF. Description: Cell proliferation assay (CCK-8 assay) with BV (Example 2). In kind it is cell-based, human. The following applies: 0-50 μg/ml BV, 24-72 hours. As for the experimental part: (§3) In order to clarify how the number of human iPS cells changed with various BV concentrations and BV treatment times, BV was added in vitro to human iPS cells, cell proliferation assay (CCK-8 assay), which reflects the number of cells, was performed, and viable cells were evaluated quantitatively.
Three human iPS cell strains (1231A3, MYH-GIP4, and 253G1) and NHDF were each seeded in a 12-well plate (cell density: 20% confluency). However, the cell density of NHDF was set to 50% confluency.
Forty-eight hours after seeding, 0, 5, 25, and 50 μg/ml of BV was added to each well (the agent-containing medium was exchanged every 24 hours). Thereafter, cell proliferation assay was performed 24 hours, 48 hours, and 72 hours after addition.
(In general: Tetrazolium assays rely on reduction of a dye to a coloured formazan, in cell work by metabolically active cells.)

The test system of data set [8] is human iPS cell strains (253G1, MYH-GIP4, and 201B7). Description: Cell proliferation assay (CCK-8 assay) with BV (Example 3). In kind it is cell-based. The following applies: 72 hours after treatment with 50 μg/ml BV, all the human iPS cells. As for the experimental part: as §3
(§4) Three human iPS cell strains (253G1, MYH-GIP4, and 201B7) and NHDF were each seeded in a 12-well plate (cell density: 20% confluency). However, the cell density of NHDF was set to 50% confluency.
(§5) Forty-eight hours after seeding, 0, 0.1, 0.25, 0.5, 1, 2.5, 5,10, 25, and 50 μg/ml of BV was added to each well (the agent-containing medium was exchanged every 24 hours). Thereafter, cell proliferation assay was performed 72 hours after addition.

Data set [9] deals with NHDF. Described as above. In kind it is cell-based, human. As to conditions: 0.1-50 μg/ml BV, 72 hours. The method, then: as §3, §4, §5
The test system of data set [10] is Lin28 expression in iPS-CM derived from human iPS cell strain 253G1. The data set is described as follows: Lin28 expression by quantitative PCR in iPS-CM treated with BV (Example 4). The format is cell-based. As for the experimental part:
This method is targeted for human iPS cell-derived cardiomyocytes (iPS-CM). iPS-CM is considered to contain tumorigenic undifferentiated cells, in addition to cardiomyocytes.
The method for inducing differentiation into cardiomyocytes was performed according to the following document: Matsuura K, et al. Creation of human cardiac cell sheets using pluripotent stem cells. Biochem Biophys Res Commun, 2012, and 425(2) pp. 321-7. iPS-CM derived from human iPS cell strain 253G1 was seeded in a 12-well plate (cell density: 90% confluency). Forty-eight hours after seeding, 0, 5, and 10 μg/ml of BV was added to each well (the agent-containing medium was exchanged every 24 hours). Thereafter, mRNA was extracted 72 hours and 96 hours after addition. Lin28 expression levels were quantified by quantitative PCR.

Some results are limits rather than exact numbers.

As to `Cc1sc2c(c1C)C(c1ccc(Cl)cc1)=N[C@@H](CC(=O)OC(C)(C)C)c1nnc(C)n1-2` [JQ1], the “cell death (microscope observation, crystal violet staining)” value was “complete cell death was induced” in [1] and “cell death was not observed” in data set [2]. In data set [3], this compound had a cell proliferation rate of at most 10%. The TRA-1-60 positive rate amounted to 0.2% in data set [4] (1 μM JQ1, 96 hours after addition) and 0.1% in [4] (5 μM JQ1, 96 hours after addition).

Take Brentuximab vedotin [BV]: the “cell death (microscope observation)” value in data set [5] is “cell death was partially induced”. In addition, in data set [6], the “induction of cell death (macroscopic observation)” value is listed as “induction of cell death was not observed macroscopically”. Also, the “effect of BV on number of cells” value in the data set with NHDF [7] was “hardly affected”. Moreover, the cell proliferation in [8] is at most 20%. Further, in the data set on NHDF [9], the “effect of BV on cell proliferation” value is on record as “hardly affected”. Moreover, the “expression of undifferentiated marker Lin28, of the control group (BV: 0 μg/ml)” value in data set [10] (72-hour treatment, BV 5 and 10 μg/ml) is reported as “about 50%”. For the same compound, the “Lin28 expression level, pure human iPS cells regarded as 100%” value in data set [10] (72nd hour, BV-added groups) is listed as “about 0.3%”.
